Test results from the NIST ThermoML archive (doi:10.1016/j.jct.2015.09.034).

Conditions: Liquid, Buoyancy - hydrostatic balance with magnetic suspension - one sinker

C [methane]
Conditions	mass density [kg/m3]
105 K, 185.5 kPa	432.098
105 K, 478.95 kPa	432.339
105 K, 973.88 kPa	432.743
105 K, 1970.8 kPa	433.554
105 K, 5044.6 kPa	435.981
115 K, 479.33 kPa	417.827
115 K, 973.28 kPa	418.319
115 K, 1970 kPa	419.298
125 K, 477.88 kPa	402.38
125 K, 972.71 kPa	402.99
125 K, 1970.4 kPa	404.194
125 K, 5112.4 kPa	407.803
135 K, 783.75 kPa	386.1
135 K, 1001.2 kPa	386.441
135 K, 2014.3 kPa	387.992
135 K, 5208.9 kPa	392.557
